Assay results: US7799824B2, “Quaternary salt CCR2 antagonists” (OraPharma, Inc., priority 2004, dated 2010)

What follows are compounds tested on Ovalbumin-induced Allergic Rhinitis (assay: Ovalbumin-induced allergic rhinitis in mice, therapeutic effect). Details: positive controls, dose not given.
Type: in vivo, BALB/c mice
Procedure: BALB/c mice were sensitized by i.p. injection of OVA emulsified in alum (Day 0, 5, 14, 21). Groups of mice were each challenged by intranasal injection of OVA (Day 22-35, 38).
Control group mice received an equal volume of vehicle by intranasal injection. Nasal symptoms (number of sneezes and episodes of nose rubbing by the front paws) were counted during the 5 min period following the last intranasal injection (Day 38).
The anti-histamine Pyralimine and the mast cell-stabilizing agent Ketotifen were used as positive controls.
For `CN1CCC(=C2c3ccccc3CC(=O)c3sccc32)CC1` [Ketotifen], the “inhibition of nasal symptoms (rubbing)” value was 81% and the “inhibition of nasal symptoms (sneezing)” value was 50%. For `COc1ccc(CN(CCN(C)C)c2ccccn2)cc1` [Pyralimine], the “inhibition of nasal symptoms (rubbing)” value was 85% and the “inhibition of nasal symptoms (sneezing)” value was 60%.

These compounds were tested against T1, CCR2 (Homo sapiens, UniProt P41597) (assay: MCP-1 Receptor Binding Assay in THP-1 Cells). Details: MCP-1 binding to CCR2; test concentration of 25 μM, unless indicated otherwise; read-out: % Inhibition Ligand Binding.
T1 sequence (P41597 1-360 isoform P41597-2): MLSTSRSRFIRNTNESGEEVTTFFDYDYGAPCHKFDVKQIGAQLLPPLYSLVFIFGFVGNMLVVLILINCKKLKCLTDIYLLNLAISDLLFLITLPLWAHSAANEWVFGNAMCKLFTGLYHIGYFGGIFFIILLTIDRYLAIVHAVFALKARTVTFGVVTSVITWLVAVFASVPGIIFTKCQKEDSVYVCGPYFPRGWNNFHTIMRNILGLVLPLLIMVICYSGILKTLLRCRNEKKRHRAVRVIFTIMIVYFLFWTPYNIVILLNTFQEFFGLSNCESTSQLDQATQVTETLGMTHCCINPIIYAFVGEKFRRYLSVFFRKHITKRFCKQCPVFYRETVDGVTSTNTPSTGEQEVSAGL
Outline: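 THP-1 cells; bound radioactivity collected on filter plates and counted by scintillation. Buffer-only blanks subtracted, drug-treated values compared with vehicle; nonspecific binding defined with 1 μM unlabeled MCP-1.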
`C[N+](C)(Cc1ccc(NC(=O)C2=Cc3cc(C(F)(F)F)ccc3OC2)cc1)C1CCCCC1` [Cpd 125, cyclohexyl-dimethyl-{4-[(6-trifluoromethyl-2H-chromene-3-carbonyl)-amino]-benzyl}-ammonium iodide] gave an inhibition at 25 µM of 100%. With `C[N+](C)(Cc1ccc(CNC(=O)C2=Cc3cc(Br)ccc3CCC2)cc1)C1CCOCC1` [Cpd 142, (4-{[(3-bromo-8,9-dihydro-7H-benzocycloheptene-6-carbonyl)-amino]-methyl}-benzyl)-dimethyl-(tetrahydro-pyran-4-yl)-ammonium iodide] the inhibition at 25 µM was -18%. With `C[N+](C)(Cc1ccc(NC(=O)C=Cc2ccc(Cl)c(Cl)c2)cc1)C1CCSCC1` [Cpd 41, {4-[3-(3,4-dichloro-phenyl)-acryloylamino]-benzyl}-dimethyl-(tetrahydro-thiopyran-4-yl)-ammonium iodide] the inhibition at 25 µM was 87%. With `C[N+](C)(Cc1ccc(NC(=O)C2=Cc3c(F)cccc3OC2)cc1)C1CCCCC1` [Cpd 124, cyclohexyl-{4-[(5-fluoro-2H-chromene-3-carbonyl)-amino]-benzyl}-dimethyl-ammonium iodide] the inhibition at 25 µM was 100%. For `Cc1oc(-c2ccc(Cl)cc2)cc1C(=O)NCc1ccc(C[N+](C)(C)C2CCOCC2)cc1` [Cpd 150, [4-({[5-(4-chloro-phenyl)-2-methyl-furan-3-carbonyl]-amino}-methyl)-benzyl]-dimethyl-(tetrahydro-pyran-4-yl)-ammonium iodide], the inhibition at 25 µM was 27%. `CCC[N+](C)(Cc1ccc(NC(=O)c2ccc3ccccc3c2)cc1)C1CCOCC1` (stereo not drawn) [Cpd 92, methyl-{4-[(naphthalene-2-carbonyl)-amino]-benzyl}-propyl-(tetrahydro-pyran-4-yl)-ammonium iodide] showed an inhibition at 25 µM of 54%. For `C[N+](C)(Cc1ccc(NC(=O)c2sc3ccccc3c2Cl)cc1)C1CCOCC1` [Cpd 174, {4-[(3-chloro-benzo[b]thiophene-2-carbonyl)-amino]-benzyl}-dimethyl-(tetrahydro-pyran-4-yl)-ammonium iodide], the inhibition at 25 µM was 52%. `Cn1cc(C(=O)Nc2ccc(C[N+](C)(C)C3CCOCC3)cc2)c2ccccc21` [Cpd 161, dimethyl-{4-[(1-methyl-1H-indole-3-carbonyl)-amino]-benzyl}-(tetrahydro-pyran-4-yl)-ammonium iodide] gave an inhibition at 25 µM of 33%.

Same assay, conditions: THP-1 cells, 0.5 nM 125I labeled MCP-1, 2 hours at 30° C.; read-out: Mean Ligand Binding IC50 (inhibition of MCP-1 binding to CCR2)
`C[N+](C)(Cc1ccc(NC(=O)c2ccc(F)c(Cl)c2)cc1)C1CCCCC1` [Cpd 76, [4-(3-chloro-4-fluoro-benzoylamino)-benzyl]-cyclohexyl-dimethyl-ammonium iodide] was tested, and the IC50 was 160 nM. In the case of `C[N+](C)(Cc1ccc(CNC(=O)c2cccc(C(F)(F)F)c2)cc1)C1CCCCC1` [Cpd 3, cyclohexyl-dimethyl-{4-[(3-trifluoromethyl-benzoylamino)-methyl]-benzyl}-ammonium iodide], the IC50 is reported as 4300 nM. `C[N+](C)(Cc1ccc(NC(=O)c2ccc(-c3ccccc3)cc2)cc1)C1CCOCC1` [Cpd 88, {4-[(biphenyl-4-carbonyl)-amino]-benzyl}-dimethyl-(tetrahydro-pyran-4-yl)-ammonium iodide] showed an IC50 of 870 nM. In the case of `C[N+](C)(Cc1ccc(NC(=O)C2=Cc3cc(Br)ccc3CCC2)cc1)C1CCOCC1` [Cpd 143, {4-[(3-bromo-8,9-dihydro-7H-benzocycloheptene-6-carbonyl)-amino]-benzyl}-dimethyl-(tetrahydro-pyran-4-yl)-ammonium iodide], the IC50 is reported as 7 nM. `C[N+](C)(Cc1ccc(NC(=O)c2ccc(Cl)c(Cl)c2)cc1)C[C@@H]1CCCO1` [Cpd 15, (2S)-[4-(3,4-dichloro-benzoylamino)-benzyl]-dimethyl-(tetrahydro-furan-2-ylmethyl)-ammonium iodide] showed an IC50 of 2000 nM. For `C[N+](C)(Cc1ccc(NC(=O)c2cc3cc(Cl)ccc3o2)cc1)C1CCCCC1` [Cpd 156, {4-[(5-chloro-benzofuran-2-carbonyl)-amino]-benzyl}-cyclohexyl-dimethyl-ammonium iodide], the IC50 was 180 nM. For `C[N+](C)(Cc1ccc(NC(=O)c2ccc3ccccc3c2)cc1)C1CCOCC1` [Cpd 90, dimethyl-{4-[(naphthalene-2-carbonyl)-amino]-benzyl}-(tetrahydro-pyran-4-yl)-ammonium iodide], the IC50 was 220 nM. With `C[N+](C)(Cc1ccc(NC(=O)C2=Cc3cc(Cl)ccc3OC2)cc1)[C@H]1CC2CCC1C2` (stereo partly drawn) [Cpd 110, (2S)-bicyclo[2.2.1]hept-2-yl-{4-[(6-chloro-2H-chromene-3-carbonyl)-amino]-benzyl}-dimethyl-ammonium iodide] the IC50 was 320 nM. For `C[N+](C)(Cc1ccc(CNC(=O)C=Cc2cccc(Br)c2)cc1)C1CCOCC1` [Cpd 5, (4-{[3-(3-bromo-phenyl)-acryloylamino]-methyl}-benzyl)-dimethyl-(tetrahydro-pyran-4-yl)-ammonium iodide], the IC50 was 8300 nM. `C[N+](C)(Cc1cccc(NC(=O)C=Cc2cccc(Br)c2)c1)C1CCOCC1` [Cpd 38, {3-[3-(3-bromo-phenyl)-acryloylamino]-benzyl}-dimethyl-(tetrahydro-pyran-4-yl)-ammonium iodide] showed an IC50 of 5000 nM. For `CC(C)(C)c1ccc2c(c1)C=C(C(=O)Nc1ccc(C[N+](C)(C)C3CCCCC3)cc1)CO2` [Cpd 129, {4-[(6-tert-butyl-2H-chromene-3-carbonyl)-amino]-benzyl}-cyclohexyl-dimethyl-ammonium iodide], the IC50 was 150 nM. `Cc1ccc2c(c1)OCC(C(=O)Nc1ccc(C[N+](C)(C)C3CCCCC3)cc1)=C2` [Cpd 127, cyclohexyl-dimethyl-{4-[(7-methyl-2H-chromene-3-carbonyl)-amino]-benzyl}-ammonium iodide] gave an IC50 of 80 nM. Compound `C[N+](C)(Cc1ccc(NC(=O)C2=Cc3c(ccc4ccccc34)OC2)cc1)CC1CCOCC1` [Cpd 140, {4-[(3H-benzo[f]chromene-2-carbonyl)-amino]-benzyl}-dimethyl-(tetrahydro-pyran-4-ylmethyl)-ammonium iodide] has an IC50 of 1000 nM. `C[N+](C)(Cc1ccc(NC(=O)C2=Cc3cc(Cl)cc(Cl)c3OC2)cc1)C1CC2CCC1C2` (stereo not drawn) [Cpd 111, bicyclo[2.2.1]hept-2-yl-{4-[(6,8-dichloro-2H-chromene-3-carbonyl)-amino]-benzyl}-dimethyl-ammonium iodide] gave an IC50 of 2000 nM. With `C[N+]1(Cc2ccc(NC(=O)c3ccc(Cl)c(Cl)c3)cc2)CCCC1` [Cpd 51, 1-[4-(3,4-dichloro-benzoylamino)-benzyl]-1-methyl-pyrrolidinium iodide] the IC50 was 2700 nM. In the case of `C[N+](C)(Cc1ccc(NC(=O)C2=Cc3cc(Cl)cc(Cl)c3OC2)cc1)C1CCCCC1` [Cpd 107, cyclohexyl-{4-[(6,8-dichloro-2H-chromene-3-carbonyl)-amino]-benzyl}-dimethyl-ammonium iodide], the IC50 is reported as 170 nM. Work on `C[N+](C)(Cc1ccc(NC(=O)c2cc(Cl)ccc2Cl)cc1)C1CCCCC1` [Cpd 81, cyclohexyl-[4-(2,5-dichloro-benzoylamino)-benzyl]-dimethyl-ammonium iodide] yielded an IC50 of 3000 nM. In the case of `C[N+](C)(Cc1ccc(NC(=O)C2=Cc3cc(C(F)(F)F)ccc3OC2)cc1)C1CCSC1` (stereo not drawn) [Cpd 130, dimethyl-(tetrahydro-thiophen-3-yl)-{4-[(6-trifluoromethyl-2H-chromene-3-carbonyl)-amino]-benzyl}-ammonium iodide], the IC50 is reported as 300 nM. `Cc1ccc(C(=O)Nc2ccc(C[N+](C)(C)C3CCOCC3)cc2)cc1Cl` [Cpd 28, [4-(3-chloro-4-methyl-benzoylamino)-benzyl]-dimethyl-(tetrahydro-pyran-4-yl)-ammonium iodide] gave an IC50 of 460 nM. With `C[N+]1(Cc2ccc(CNC(=O)C=Cc3cccc(Br)c3)cc2)CCCCC1` [Cpd 49, 1-(4-{[3-(3-bromo-phenyl)-acryloylamino]-methyl}-benzyl)-1-methyl-piperidinium iodide] the IC50 was 11900 nM. In the case of `C=CC[N+](C)(Cc1ccc(NC(=O)C=Cc2cccc(Br)c2)cc1)C1CCSCC1` (stereo not drawn) [Cpd 63, allyl-{4-[3-(3-bromo-phenyl)-acryloylamino]-benzyl}-methyl-(tetrahydro-thiopyran-4-yl)-ammonium iodide], the IC50 is reported as 3500 nM. `C[N+](C)(Cc1ccc(NC(=O)c2ccc3ccc(Br)cc3c2)cc1)C1CCCCC1` [Cpd 94, {4-[(7-bromo-naphthalene-2-carbonyl)-amino]-benzyl}-cyclohexyl-dimethyl-ammonium iodide] showed an IC50 of 1300 nM.

The compounds below were run on Ovalbumin-induced Allergic Rhinitis (assay: Ovalbumin-induced allergic rhinitis in mice, prophylactic effect). Details: positive control, dose not given.
Type: in vivo, BALB/c mice
Procedure: BALB/c mice were sensitized by i.p. injection of OVA emulsified in alum (Day 0, 5, 14, 21). Groups of mice were each challenged by intranasal injection of OVA (Day 22-35, 38). Control group mice received an equal volume of vehicle by intranasal injection. Nasal symptoms (number of sneezes and episodes of nose rubbing by the front paws) were counted during the 5 min period following the last intranasal injection (Day 38). […] The histamine receptor antagonist […]® was used as a positive control.
For `CN1CCCC(n2nc(Cc3ccc(Cl)cc3)c3ccccc3c2=O)CC1` (stereo not drawn) [Astelin, reference compound], the “inhibition of nasal symptoms (rubbing)” value was 89% and the “inhibition of nasal symptoms (sneezing)” value was 51%.
